Measured values taken from patent publication US4988687A, “Cephalosporin derivatives, and antibacterial agents” (priority 1986, dated 1991).
≈ marks a conversion by molar mass, not a printed value. Read-outs that look alike come from different tables or passages of the source.

Experiments:
[1] = system: S. aureus 209P NIHJ-JC1; experiment: agar plate dilution method, MIC against S. aureus 209P NIHJ-JC1; assay type: cell-based; details: Staphylococcus aureus, read-out: Minimum Inhibitory Concentration (MIC)
How it was run: (§1)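 Overnight Mueller Hinton broth cultures were loop-inoculated onto Mueller Hinton agar containing serial antibiotic concentrations (inoculum 10^6 CFU/ml). Plates were incubated at 37° C. for 16 hours, and the MIC (μg/ml) was recorded.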

[2] = system: S. aureus JS1; experiment: agar plate dilution method, MIC against S. aureus JS1; assay type: cell-based; details: Staphylococcus aureus, read-out: Minimum Inhibitory Concentration (MIC)
How it was run: as §1

[3] = system: S. aureus BB5703; experiment: agar plate dilution method, MIC against S. aureus BB5703; assay type: cell-based; details: Staphylococcus aureus, BB5703, 16 h, read-out: Minimum Inhibitory Concentration (MIC)
How it was run: as §1

[4] = system: S. epidermidis IAM12012; experiment: agar plate dilution method, MIC against S. epidermidis IAM12012; assay type: cell-based; details: Staphylococcus epidermidis, IAM12012, 16 h, read-out: Minimum Inhibitory Concentration (MIC)
How it was run: as §1

[5] = system: M. luteus ATCC9341; experiment: agar plate dilution method, MIC against M. luteus ATCC9341; assay type: cell-based; details: Micrococcus luteus, read-out: Minimum Inhibitory Concentration (MIC)
How it was run: as §1

[6] = system: C. freundii GN346/16; experiment: agar plate dilution method, MIC against C. freundii GN346/16; assay type: cell-based; details: Citrobacter freundii; C. freundii GN346/16; 10^6 CFU/ml, 37° C., 16 hours; read-out: Minimum Inhibitory Concentration (MIC)
How it was run: as §1

[7] = system: E. coli NIHJ JC2; experiment: agar plate dilution method, MIC against E. coli NIHJ JC2; assay type: cell-based; details: Escherichia coli, NIHJJC2; E. coli NIHJ JC2; 10^6 CFU/ml, 37° C., 16 hours; read-out: Minimum Inhibitory Concentration (MIC)
How it was run: as §1

[8] = system: E. coli CSH2 (RK1); experiment: agar plate dilution method, MIC against E. coli CSH2 (RK1); assay type: cell-based; details: Escherichia coli, 16 h, read-out: Minimum Inhibitory Concentration (MIC)
How it was run: (§2)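 MIC (μg/ml) read after 16 h at 37° C. on Mueller Hinton agar with graded compound levels; inoculum 10^6 CFU/ml from overnight Mueller Hinton broth culture, one loopful per strain.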

[9] = system: K. pneumoniae PCI-602; experiment: agar plate dilution method, MIC against K. pneumoniae PCI-602; assay type: cell-based; details: Klebsiella pneumoniae, PCI602, 16 h, read-out: Minimum Inhibitory Concentration (MIC)
How it was run: as §1

[10] = system: E. coli CSH(RE45); experiment: agar plate dilution method, MIC against E. coli CSH(RE45); assay type: cell-based; details: Escherichia coli, 16 h, read-out: Minimum Inhibitory Concentration (MIC)
How it was run: as §2

[11] = system: K. oxytoca GN10650; experiment: agar plate dilution method, MIC against K. oxytoca GN10650; assay type: cell-based; details: Klebsiella oxytoca, read-out: Minimum Inhibitory Concentration (MIC)
How it was run: as §1

[12] = system: K. pneumoniae No. 42; experiment: agar plate dilution method, MIC against K. pneumoniae No. 42; assay type: cell-based; details: Klebsiella pneumoniae, read-out: Minimum Inhibitory Concentration (MIC)
How it was run: as §1

[13] = system: P. vulgaris HX-19; experiment: agar plate dilution method, MIC against P. vulgaris HX-19; assay type: cell-based; details: Proteus vulgaris, read-out: Minimum Inhibitory Concentration (MIC)
How it was run: as §1

[14] = system: P. vulgaris No. 33; experiment: agar plate dilution method, MIC against P. vulgaris No. 33; assay type: cell-based; details: Proteus vulgaris; P. vulgaris No. 33 (lactamase-producing strain); 10^6 CFU/ml, 37° C., 16 hours; read-out: Minimum Inhibitory Concentration (MIC)
How it was run: as §1

[15] = system: S. marcescens IAM 1184; experiment: agar plate dilution method, MIC against S. marcescens IAM 1184; assay type: cell-based; details: Serratia marcescens, IAM1184; S. marcescens IAM 1184; 10^6 CFU/ml, 37° C., 16 hours; read-out: Minimum Inhibitory Concentration (MIC)
How it was run: as §1

[16] = system: C. freundii GN346; experiment: agar plate dilution method, MIC against C. freundii GN346; assay type: cell-based; details: Citrobacter freundii; C. freundii GN346 (lactamase-producing strain); 10^6 CFU/ml, 37° C., 16 hours; read-out: Minimum Inhibitory Concentration (MIC)
How it was run: as §1

[17] = system: E. cloacae 963; experiment: agar plate dilution method, MIC against E. cloacae 963; assay type: cell-based; details: Enterobacter cloacae; E. cloacae 963; 10^6 CFU/ml, 37° C., 16 hours; read-out: Minimum Inhibitory Concentration (MIC)
How it was run: as §1

[18] = system: E. cloacae Nek 39; experiment: agar plate dilution method, MIC against E. cloacae Nek 39; assay type: cell-based; details: Enterobacter cloacae, NEK39; E. cloacae Nek 39 (lactamase-producing strain); 10^6 CFU/ml, 37° C., 16 hours; read-out: Minimum Inhibitory Concentration (MIC)
How it was run: as §1

[19] = system: E. coli GN5482; experiment: agar plate dilution method, MIC against E. coli GN5482; assay type: cell-based; details: Escherichia coli; E. coli GN5482 (lactamase-producing strain); 10^6 CFU/ml, 37° C., 16 hours; read-out: Minimum Inhibitory Concentration (MIC)
How it was run: as §1

[20] = system: M. morganii GN5407; experiment: agar plate dilution method, MIC against M. morganii GN5407; assay type: cell-based; details: Morganella morganii; M. morganii GN5407 (lactamase-producing strain); 10^6 CFU/ml, 37° C., 16 hours; read-out: Minimum Inhibitory Concentration (MIC)
How it was run: as §1

[21] = system: S. marcescens No. 16-2; experiment: agar plate dilution method, MIC against S. marcescens No. 16-2; assay type: cell-based; details: Serratia marcescens, read-out: Minimum Inhibitory Concentration (MIC)
How it was run: as §1

[22] = system: Ps. aeruginosa IFO3445; experiment: agar plate dilution method, MIC against Ps. aeruginosa IFO3445; assay type: cell-based; details: Pseudomonas aeruginosa; Ps. aeruginosa IFO3445; 10^6 CFU/ml, 37° C., 16 hours; read-out: Minimum Inhibitory Concentration (MIC)
How it was run: as §1

[23] = system: Ps. aeruginosa AK 109; experiment: agar plate dilution method, MIC against Ps. aeruginosa AK 109; assay type: cell-based; details: Pseudomonas aeruginosa, AK109; Ps. aeruginosa AK 109; 10^6 CFU/ml, 37° C., 16 hours; read-out: Minimum Inhibitory Concentration (MIC)
How it was run: as §1

[24] = system: Ps. aeruginosa AKR17; experiment: agar plate dilution method, MIC against Ps. aeruginosa AKR17; assay type: cell-based; details: Pseudomonas aeruginosa, AKR17, 16 h, read-out: Minimum Inhibitory Concentration (MIC)
How it was run: as §1

[25] = system: Ps. cepacia 23; experiment: agar plate dilution method, MIC against Ps. cepacia 23; assay type: cell-based, Pseudomonas cepacia; details: Burkholderia cepacia, 23, 16 h, read-out: Minimum Inhibitory Concentration (MIC)
How it was run: as §1

[26] = system: Ps. maltophilia GN 12873; experiment: agar plate dilution method, MIC against Ps. maltophilia GN 12873; assay type: cell-based, Pseudomonas maltophilia; details: Stenotrophomonas maltophilia, GN12873; Ps. maltophilia GN 12873 (lactamase-producing strain); 10^6 CFU/ml, 37° C., 16 hours; read-out: Minimum Inhibitory Concentration (MIC)
How it was run: as §1

[27] = system: A. calcoaceticus No. 4; experiment: agar plate dilution method, MIC against A. calcoaceticus No. 4; assay type: cell-based; details: Acinetobacter calcoaceticus; A. calcoaceticus No. 4; 10^6 CFU/ml, 37° C., 16 hours; read-out: Minimum Inhibitory Concentration (MIC)
How it was run: as §1

[28] = system: sensitive and resistant Gram-positive bacteria and Gram-negative bacteria particularly glucose non-fermentative Gram-negative rods; experiment: antibacterial activity and spectrum (in words); assay type: cell-based; details: in vitro
Experimental: The in vitro antibacterial activities of the compounds of the present invention against various microorganisms, were measured by the following agar plate dilution method. One platinum loopfull of each test microorganism incubated overnight in Mueller Hinton broth, was inoculated to Mueller Hinton agar (inoculum size: 10^6 CFU/ml) Such culture media containing various antibiotics in various concentrations were prepared After incubation at 37° C. for 16 hours, the minimum inhibitory concentrations (MIC: μg/ml) were measured. As comparative compounds, cefotaxime, oeftazidime and the compounds disclosed in Example 2 of Japanese Unexamined Patent Publication No. 215690/1985 e.g. sodium 7-[2-(2-aminothiazol-4-yl)-2-ethoxyiminoacetamido]-3-(1-carboxylatemethylpyridinio-4-yl)thiomethyl-3-cephem-4-carboxylate (hereinafter referred to simply as "Reference Example A") were employed.

| SMILES | MIC [3] [µg/mL] | MIC [4] [µg/mL] | MIC [6] [µg/mL] | MIC [7] [µg/mL] | MIC [8] [µg/mL] | MIC [9] [µg/mL] | MIC [10] [µg/mL] | MIC [14] [µg/mL] | MIC [15] [µg/mL] | MIC [16] [µg/mL] | MIC [17] [µg/mL] | MIC [18] [µg/mL] | MIC [19] [µg/mL] | MIC [20] [µg/mL] | MIC [22] [µg/mL] | MIC [23] [µg/mL] | MIC [24] [µg/mL] | MIC [25] [µg/mL] | MIC [26] [µg/mL] | MIC [27] [µg/mL] | other results |
| --- | --- | --- | --- | --- | --- | --- | --- | --- | --- | --- | --- | --- | --- | --- | --- | --- | --- | --- | --- | --- | --- |
| CC(=O)Oc1ccc(C(O/N=C(\C(=O)NC2C(=O)N3C(C(=O)[O-])=C(CSc4cc[n+](CC(=O)O)cc4)CSC23)c2csc(N)n2)C(=O)O)cc1OC(C)=O (stereo not drawn) [Example 6, disodium 7-[2-(2-aminothiazol-4-yl)-2-(α-carboxylate-3,4-diacetoxybenzyloxyimino)acetamido]-3-(1-carboxylatemethylpyridinio-4-yl)thiomethyl-3-cephem-4-carboxylate (syn-isomer)] | 6.25 | 3.12 | 0.39 | 0.2 | 0.05 | < 0.006 | 0.05 | 0.1 | 0.2 | 25 | 0.39 | 0.78 | 0.39 | 0.2 | 0.78 | 0.78 | 1.56 | 0.025 | > 100 | 0.39 | MIC ([1]; 16 h): 1.56 µg/mL; MIC ([2]; S. aureus JS1 (methicilline resistant; lactamase-producing strain), 10^6 CFU/ml, 37° C., 16 hours): 25 µg/mL; MIC ([5]; ATCC9341, 16 h): 3.12 µg/mL; MIC ([11]; GN10650, 16 h): 0.2 µg/mL; MIC ([12]; NO.42, 16 h): 0.1 µg/mL; MIC ([13]; HX19, P. vulgaris HX-19, 10^6 CFU/ml, 37° C., 16 hours): 0.1 µg/mL; MIC ([21]; NO.162, 16 h): 1.56 µg/mL; antibacterial activities and antibacterial spectrum (in words) [28]: excellent antibacterial activities and a broad antibacterial spectrum |
| Nc1nc(C(=NOC(C(=O)O)c2ccc(O)c(O)c2)C(=O)NC2C(=O)N3C(C(=O)[O-])=C(CSc4cc[n+](CC(=O)O)cc4)CSC23)cs1 (stereo not drawn) [Example 5, 7-[2-(2-aminothiazol-4-yl)-2-(α-carboxy-3,4-dihydroxybenzyloxyimino)acetamido]-3-(1-carboxymethylpyridinio-4-yl)thiomethyl-3-cephem-4-carboxylate (syn-isomer)] | 3.12 (≈ 4.35 µM) | 1.56 (≈ 2.18 µM) | 0.39 (≈ 0.544 µM) | 0.1 (≈ 0.14 µM) | 0.05 (≈ 0.0698 µM) | < 0.006 | 0.05 (≈ 0.0698 µM) | 0.05 (≈ 0.0698 µM) | 0.1 (≈ 0.14 µM) | 25 (≈ 34.9 µM) | 0.1 (≈ 0.14 µM) | 0.2 (≈ 0.279 µM) | 0.2 (≈ 0.279 µM) | 0.1 (≈ 0.14 µM) | 0.39 (≈ 0.544 µM) | 0.78 (≈ 1.09 µM) | 1.56 (≈ 2.18 µM) | < 0.006 | > 100 | 0.2 (≈ 0.279 µM) | MIC ([1]; S. aureus 209P NIHJ-JC1, 10^6 CFU/ml, Mueller Hinton agar, 37° C., 16 hours): 0.78 µg/mL (≈ 1.09 µM); MIC ([2]; JS1, 16 h): 6.25 µg/mL (≈ 8.72 µM); MIC ([5]; M. luteus ATCC9341, 10^6 CFU/ml, 37° C., 16 hours): 0.78 µg/mL (≈ 1.09 µM); MIC ([11]; K. oxytoca GN10650 (lactamase-producing strain), 10^6 CFU/ml, 37° C., 16 hours): 0.05 µg/mL (≈ 0.0698 µM); MIC ([12]; K. pneumoniae No. 42 (lactamase-producing strain), 10^6 CFU/ml, 37° C., 16 hours): 0.2 µg/mL (≈ 0.279 µM); MIC ([13]; HX19, 16 h): 0.025 µg/mL (≈ 0.0349 µM); MIC ([21]; NO.162, S. marcescens No. 16-2 (lactamase-producing strain), 10^6 CFU/ml, 37° C., 16 hours): 0.78 µg/mL (≈ 1.09 µM); antibacterial activities and antibacterial spectrum (in words) [28]: excellent antibacterial activities and a broad antibacterial spectrum |
